Blank lines part the entries; values can stand above or below the compound they belong to.
Experiments:
[1] = passive then Na+/K+ gradient with valinomycin; cited from earlier work
[2] = Simultaneous loading of FUDR and cpt-11 into DSPC/Cholesterol (high-cholesterol) liposomes; type: physicochemical; conditions: 50° C.; for loading in liposomes: DSPC/Cholesterol, 100 mM Cu(II)gluconate pH 7.0; for drug ratio of FUDR-to-cpt-11 during the course of the experiment: FIG. 6
Procedure: (§1) At various time points after initiation of drug loading, aliquots were removed and passed through a Sephadex® G-50 spin column to separate free from encapsulated drug. To a specified volume of eluant, Triton X-100 or N-ocyl beta-D-glucopyranoside (OGP) was added to solubilize the liposomes. Following addition of detergent, the mixture was heated to the cloud point of the detergent and allowed to cool to room temperature before measurement of the absorbance or fluorescence. Drug concentrations were calculated by comparison to a standard curve. Lipid levels were measured by liquid scintillation counting.
Lipid films of DSPC/Cholesterol at a mole ratio of 55:45 were prepared as previously described and then hydrated in 100 mM Cu(II)gluconate, adjusted to pH 7.0 with triethanolamine (TEA). The liposomes were buffer exchanged into SPE, pH 7.0. Prior to addition of drugs, the liposomes were preheated to 50° C. for one minute. FUDR (with tracer amounts of ^3H-FUDR) and cpt-11 were combined then added simultaneously to the pre-heated liposomes. FUDR was added to a final drug concentration of 110 μmol/mL and cpt-11 was added to a final drug concentration of 7.5 μmol/mL. The liposomes and drugs were incubated for one hour to allow for the passive uptake of FUDR concurrent with the active uptake of Irinotecan. Aliquots were removed and analyzed for drug and lipid content at designated time intervals. The extent of cpt-11 loading was determined spectrophotometrically and FUDR and lipid levels were determined by liquid scintillation counting.

[3] = Simultaneous loading of irinotecan and floxuridine into low cholesterol DSPC/DSPG/Cholesterol liposomes (data not shown); type: physicochemical; conditions: low cholesterol-containing DSPC/DSPG/Cholesterol liposomes
[4] = Simultaneous loading of cytarabine and daunorubicin into DSPC/DSPG/Cholesterol liposomes, effect of internal Cu(II)gluconate concentration; type: physicochemical; conditions: 50° C.; for daunorubicin loading (percent encapsulation): FIG. 2B
Procedure: (§2) Lipids were dissolved in chloroform:methanol:water (95:4:1 vol/vol/vol) and subsequently dried under a stream of nitrogen gas and placed in a vacuum pump to remove solvent. Unless otherwise specified, trace levels of radioactive lipid ^14C-DPPC was added to quantify lipid during the formulation process. The resulting lipid film was placed under high vacuum for a minimum of 2 hours. The lipid film was hydrated in the solution indicated to form multilamellar vesicles (MLVs). The resulting preparation was extruded 10 times through stacked polycarbonate filters with an extrusion apparatus (Lipex Biomembranes, Vancouver, BC) to achieve a mean liposome size between 80 and 150 nm. All constituent lipids of liposomes are reported in mole %.
as §1
Lipid films of DSPC/DSPG/Cholesterol at a mole ratio of 70:20:10 were prepared as described above in the method section. The lipid films were hydrated in the designated Cu(II)gluconate concentration and adjusted to pH 7.0 with triethanolamine (TEA). The liposomes were buffer exchanged into 300 mM sucrose, 20 mM sodium phosphate, pH 7.0 by crossflow dialysis to remove any copper(II)gluconate from the extraliposomal solution. Prior to addition of drugs, the liposomes were diluted in SPE and preheated at 50° C. for one minute. […] Aliquots were removed and analyzed for drug and lipid content at designated time intervals. The extent of daunorubicin loading was determined spectrophotometrically and cytarabine and lipid levels were determined by liquid scintillation counting.

[5] = Simultaneous loading of cytarabine and daunorubicin into preformed DSPC/DSPG/Cholesterol (70:20:10) liposomes, effect of temperature; type: physicochemical; conditions: for loading and retention in liposomes: 40° C., 100 mM Cu(II)gluconate pH 7.4 inside, FIG. 1A
Procedure: as §2, §1
Lipid films of DSPC/DSPG/Cholesterol at a mole ratio of 70:20:10 were prepared as described above in the method section. The lipid films were hydrated in 100 mM Cu(II)gluconate adjusted to pH 7.4 with triethanolamine (TEA) and extruded at 70° C. The liposomes were buffer exchanged into 300 mM sucrose, 20 mM phosphate, 1 mM EDTA (SPE), pH 7.4 by crossflow dialysis to remove any copper(II)gluconate from the extraliposomal solution. Prior to addition of drugs, the liposomes were preheated to the appropriate loading temperature for one minute. […] Aliquots were removed and analyzed for drug and lipid content at designated time intervals.

[6] = Simultaneous loading of daunorubicin and cytarabine into DMPC/Cholesterol liposomes by citrate pH-gradient; type: physicochemical; conditions: 45° C. versus room temperature or 40° C., 300 mM citrate pH 4 inside, FIG. 5
Procedure: as §1
Aliquots were removed and analyzed for drug and lipid content at designated time intervals.

[7] = Simultaneous loading of FUDR and daunorubicin into preformed DSPC/DSPG/Cholesterol liposomes; type: physicochemical; conditions: 50° C.; for loading in liposomes: 100 mM Cu(II)gluconate pH 7.0, FIG. 3; for retention during the course of the experiment: FIG. 3
Procedure: as §1
FUDR and daunorubicin were loaded at 50° C. into pre-formed DSPC/DSPG/Cholesterol liposomes (70:20:10) containing 100 mM Cu(II)gluconate adjusted to pH 7.0 with triethanolamine (TEA). The liposomes were buffer exchanged into 300 mM sucrose, 40 mM phosphate, 1 mM EDTA, pH 7.0 by crossflow dialysis to remove any copper(II)gluconate from the extraliposomal solution. Prior to addition of drugs, the liposomes were diluted in SPE and preheated at 50° C. for one minute. FUDR (with trace amounts of ^3H-FUDR) and daunorubicin were combined then added simultaneously to the pre-heated liposomes. FUDR was added at a drug concentration of 60 μmol/mL and daunorubicin was added at a drug-to-lipid mole ratio of 0.1:1. […] Aliquots were removed and analyzed for drug and lipid content at designated time intervals. The extent of daunorubicin loading was determined spectrophotometrically and FUDR and lipid levels were determined by liquid scintillation counting.

[8] = Simultaneous loading of gemcitabine and doxorubicin into preformed liposomes; type: physicochemical; conditions: for loading and retention in liposomes: 60° C., DSPC/DSPG/Cholesterol 70:20:10, FIG. 4C; for simultaneous loading in high cholesterol-containing liposomes: DMPC/Cholesterol liposomes
Procedure: as §1
Gemcitabine and doxorubicin were loaded into DSPC/DSPG/Cholesterol liposomes at 37° C., 50° C. and 60° C. […] The lipid films were hydrated in 100 mM Cu(II)gluconate, adjusted to pH 7.4 with triethanolamine (TEA) and extruded at 70° C. The liposomes were buffer exchanged into HBS, pH 7.4 by crossflow dialysis. Prior to addition of drugs, the liposomes were preheated to the appropriate loading temperature for one minute. Gemcitabine (with tracer amounts of ^3H-gemcitabine) and doxorubicin were combined then added simultaneously to the pre-heated liposomes. Gemcitabine was added to a drug concentration of 30 μmol/mL and doxorubicin was added to a drug concentration of 33 μmol/mL. […] Aliquots were removed and analyzed for drug and lipid content at designated time intervals. The extent of doxorubicin loading was determined spectrophotometrically and gemcitabine and lipid levels were determined by liquid scintillation counting.

[9] = co-loaded with mitoxantrone in a single liposome; cited from earlier work
[10] = 37° C., DSPC/DSPG/Cholesterol 70:20:10, FIG. 4A
[11] = 50° C., DSPC/DSPG/Cholesterol 70:20:10, FIG. 4B

SMILES: CN(Cc1cnc2nc(N)nc(N)c2n1)c1ccc(C(=O)N[C@@H](CCC(=O)O)C(=O)O)cc1 [methotrexate]
available drug encapsulated [1]: 33%

loading in liposomes [2]: effectively loaded
drug ratio of FUDR-to-cpt-11 during the course of the experiment [2]: maintained at a sufficient level
loading in liposomes [3]: sufficient
SMILES: CCc1c2c(nc3ccc(OC(=O)N4CCC(N5CCCCC5)CC4)cc13)-c1cc3c(c(=O)n1C2)COC(=O)[C@]3(O)CC [cpt-11, irinotecan]

cytarabine loading during simultaneous uptake of daunorubicin ([4]; 25, 50, 75 and 100 mM Cu(II)gluconate, FIG. 2A): sufficient
extent of cytarabine loading ([4]; 25 and 50 mM versus 75 mM and 100 mM Cu(II)gluconate, FIG. 2A): improved
loading and retention in liposomes [5]: less than desirable
loading in liposomes ([5]; 50° C., FIG. 1B): load to adequate levels
retention in liposomes during the experiment ([5]; 50° C., FIG. 1B): effectively retained
loading in liposomes ([5]; 60° C., FIG. 1C): compromised compared to loading at 50 °C
SMILES: Nc1ccn([C@@H]2O[C@H](CO)[C@@H](O)[C@@H]2O)c(=O)n1 [cytarabine]

SMILES: COc1cccc2c1C(=O)c1c(O)c3c(c(O)c1C2=O)C[C@@](O)(C(C)=O)C[C@@H]3O[C@H]1C[C@H](N)[C@H](O)[C@H](C)O1 [daunorubicin]
daunorubicin loading (percent encapsulation) ([4]; 25 mM copper gluconate): compromised
daunorubicin loading (percent encapsulation) ([4]; 100 mM, 75 mM and 50 mM copper gluconate): sufficient
simultaneous loading efficiency [6]: more efficient
loading and retention in liposomes [5]: efficiently loaded and retained
loading in liposomes ([5]; 50° C., FIG. 1B): load to adequate levels
retention in liposomes during the experiment ([5]; 50° C., FIG. 1B): effectively retained
loading in liposomes ([5]; 60° C., FIG. 1C): loads at this temperature
retention in liposomes ([5]; 60° C., FIG. 1C): not well-retained
loading in liposomes [7]: loaded to sufficient levels
retention during the course of the experiment [7]: well maintained

loading in liposomes [8, 10]: could load effectively
loading and retention in liposomes [8]: Optimal loading and retention
simultaneous loading in high cholesterol-containing liposomes [8]: hindered by aggregation
SMILES: Nc1ccn([C@@H]2O[C@H](CO)[C@@H](O)C2(F)F)c(=O)n1 [gemcitabine, Gemcitabine]
loading in liposomes [8, 11]: load to minimal levels and then quickly leaks

SMILES: CC[C@]1(O)C[C@H]2CN(CCc3c([nH]c4ccccc34)[C@@](C(=O)OC)(c3cc4c(cc3OC)N(C=O)[C@H]3[C@@](O)(C(=O)OC)[C@H](OC(C)=O)[C@]5(CC)C=CCN6CC[C@]43[C@@H]65)C2)C1 [vincristine]
release of entrapped drug in vivo [9]: rapid release

loading in liposomes [8, 10]: did not load to sufficient levels
loading in liposomes [8, 11]: superior to the gemcitabine loading
loading and retention in liposomes [8]: Optimal loading and retention
simultaneous loading in high cholesterol-containing liposomes [8]: hindered by aggregation
SMILES: COc1cccc2c1C(=O)c1c(O)c3c(c(O)c1C2=O)C[C@@](O)(C(=O)CO)C[C@@H]3O[C@H]1C[C@H](N)[C@H](O)[C@H](C)O1 [doxorubicin]

loading in liposomes [2]: effectively loaded
drug ratio of FUDR-to-cpt-11 during the course of the experiment [2]: maintained at a sufficient level
loading in liposomes [7]: loaded to sufficient levels
retention during the course of the experiment [7]: well maintained
loading in liposomes [3]: sufficient
SMILES: O=c1[nH]c(=O)n([C@H]2C[C@H](O)[C@@H](CO)O2)cc1F [FUDR, Floxuridine]
